Experimental data taken from the kinase profiling compilation of Christmann-Franck et al. (2016).

Each compound was assayed against ABL1 (human) (UniProt P00519) (assay: radiometric filter-binding kinase assay, Kinase HotSpot). Details: compound 0.5 µM; ATP 10 µM.
Sequence of ABL1 (human) (P00519 whole entry, looked up): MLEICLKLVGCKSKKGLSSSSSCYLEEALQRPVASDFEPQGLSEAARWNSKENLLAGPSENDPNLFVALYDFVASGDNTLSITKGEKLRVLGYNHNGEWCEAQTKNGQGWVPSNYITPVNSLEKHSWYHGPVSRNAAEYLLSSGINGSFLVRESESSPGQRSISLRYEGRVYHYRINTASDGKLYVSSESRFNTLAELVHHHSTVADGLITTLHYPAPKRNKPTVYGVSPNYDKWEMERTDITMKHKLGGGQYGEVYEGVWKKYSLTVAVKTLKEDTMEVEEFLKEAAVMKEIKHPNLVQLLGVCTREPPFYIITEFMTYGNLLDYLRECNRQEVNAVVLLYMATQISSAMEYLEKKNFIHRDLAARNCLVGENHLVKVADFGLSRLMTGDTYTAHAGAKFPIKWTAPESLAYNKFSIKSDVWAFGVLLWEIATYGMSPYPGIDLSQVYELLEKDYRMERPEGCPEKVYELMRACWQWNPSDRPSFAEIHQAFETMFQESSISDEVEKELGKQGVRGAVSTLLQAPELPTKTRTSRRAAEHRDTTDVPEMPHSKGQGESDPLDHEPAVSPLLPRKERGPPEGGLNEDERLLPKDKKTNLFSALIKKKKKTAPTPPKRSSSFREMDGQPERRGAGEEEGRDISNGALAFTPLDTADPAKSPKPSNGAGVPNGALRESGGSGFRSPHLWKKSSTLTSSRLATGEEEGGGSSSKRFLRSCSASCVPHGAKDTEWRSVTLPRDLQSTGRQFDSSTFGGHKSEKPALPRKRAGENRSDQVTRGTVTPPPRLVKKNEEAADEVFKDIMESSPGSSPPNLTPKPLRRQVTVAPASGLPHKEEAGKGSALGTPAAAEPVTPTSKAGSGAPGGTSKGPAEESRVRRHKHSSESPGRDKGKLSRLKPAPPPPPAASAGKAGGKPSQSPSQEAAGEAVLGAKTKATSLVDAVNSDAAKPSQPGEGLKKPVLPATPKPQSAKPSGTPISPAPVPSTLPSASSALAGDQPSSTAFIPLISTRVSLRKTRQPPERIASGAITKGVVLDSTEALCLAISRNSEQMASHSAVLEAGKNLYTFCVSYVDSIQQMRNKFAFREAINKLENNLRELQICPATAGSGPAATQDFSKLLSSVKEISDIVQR

Row | Compound | residual activity
1 | O=C(Nc1ccc(Cl)cc1)c1ccccc1NCc1ccncc1 | 99.7%
2 | CC(C)n1cnc2c(Nc3cccc(Cl)c3)nc(NCCO)nc21 | 73.3%
3 | COc1cc2nccc(Oc3ccc(NC(=S)NC(=O)c4ccccc4C)cc3)c2cc1OC | 50.6%
4 | NC(=O)c1ccc(N(C(N)=O)c2c(F)cccc2F)nc1-c1ccc(F)cc1F | 99.7%
5 | CCN1/C(=C/C(C)=O)Sc2ccc(OC)cc21 | 92.9%
6 | O=c1cc(-c2cccc3c2Sc2ccccc2S3)oc(N2CCOCC2)c1 | 99.5%
7 | Nc1nc(Nc2ccc(S(N)(=O)=O)cc2)nn1C(=S)Nc1c(F)cccc1F | 4.96%
8 | O=C1Cc2c([nH]c3ccc([N+](=O)[O-])cc23)-c2ccccc2N1 | 57.7%
9 | Cc1ccc(NC(=O)c2ccc(CN3CCN(C)CC3)cc2)cc1Nc1nc(-c2cccnc2)cs1 | 49.8%
10 | CC(C)[C@H](CO)Nc1nc(Nc2cccc(Cl)c2)c2ncn(C(C)C)c2n1 | 75.6%
11 | COc1ccc(-c2cnc3c(-c4ccsc4)cnn3c2)cc1 | 72.9%
12 | CSc1nc(-c2ccc(F)cc2)c(-c2ccnc(NC(C)c3ccccc3)c2)[nH]1 (stereo unspecified) | 103%
13 | CCCNC(=O)Nc1ccc(Oc2ncnc3cc(OC)c(OC)cc23)cc1Cl | 89%
14 | Clc1ccc(Nc2nnc(Cc3ccncc3)c3ccccc23)cc1 | 96.5%
15 | CC(C)(C)c1nc2c3ccc(F)cc3c3c(=O)[nH]ccc3c2[nH]1 | 98.4%
16 | O=C(NC(NC(=S)Nc1ccc(F)c([N+](=O)[O-])c1)C(Cl)(Cl)Cl)C(c1ccccc1)c1ccccc1 (stereo unspecified) | 101%
17 | Cc1cc2ncc(-c3ccccc3)nc2cc1C | 99.6%
18 | CS(=O)c1ccc(-c2nc(-c3ccc(F)cc3)c(-c3ccncc3)[nH]2)cc1 (stereo unspecified) | 97%
19 | Nc1n[nH]c2nnc(-c3c(-c4ccccc4)nn4ccccc34)cc12 | 83.3%
20 | O=C1Nc2ccccc2/C1=C\c1c(Cl)[nH]c2ccccc12 | 95.2%
21 | O=c1cc(N2CCNCC2)oc2c(-c3ccccc3)cccc12 | 110%
